Test system: patients with advanced or metastatic solid tumors
Test: Phase 1 study: treatment-related adverse events (NCI CTCAE v4.03)
Type: in vivo, human
Details: for Anemia (treatment-related adverse event) / Blood bilirubin increased (treatment-related adverse event) / Decreased appetite (treatment-related adverse event) / Diarrhea (treatment-related adverse event) / Fatigue (treatment-related adverse event) / GGT increased (treatment-related adverse event) / Hypoalbuminemia (treatment-related adverse event) / Malaise (treatment-related adverse event) / Nausea (treatment-related adverse event) / Neuropathy peripheral (treatment-related adverse event) / Pyrexia (treatment-related adverse event) / Rash (treatment-related adverse event) / Vomiting (treatment-related adverse event) / WBC decreased (treatment-related adverse event) / ALP increased (treatment-related adverse event) / ALT increased (treatment-related adverse event) / AST increased (treatment-related adverse event): Grade ≥ 3
Description: The highest non-severely toxic dose was derived from a dog toxicology study and was used to calculate a clinical starting dose of 10 mg/m^2, which corresponds to one-sixth of the human-equivalent dose. The maximum tolerated dose (MTD) of TAS4464 was investigated using an accelerated titration design. Initially, the starting TAS4464 dose was 10 mg/m^2 and was followed by an initial accelerated stage (i.e., weekly dosing phase) with 100% dose-step increments (level 1: 10 mg/m^2, level 2: 20 mg/m^2, level 3: 40 mg/m^2, and level 4: 56 mg/m^2). The 100% dose-step increments continued until the occurrence of a grade ≥ 2 drug-related toxicity within Cycle 1; dose-limiting toxicity (DLT) within Cycle 1; the next dose level reaching 60 mg/m^2; or any safety concerns. Thereafter, 40% increments were employed in the standard stage.
In the standard stage, three to six patients were to be enrolled, and the dose was escalated in 40% increments if none of the first three patients experienced a DLT. If one patient experienced a DLT, three additional patients were to be enrolled at the same dose level. If two of three or two of six patients experienced a DLT, the dose escalation was to be ceased. […] Additionally, DLT criteria regarding abnormal liver function and discontinuation criteria for study drug administration were added. The TAS4464 dose level for Day 1 of Cycle 1 was then set to 40 mg/m^2 (level 3).
Therefore, TAS4464 was administered every 7 days by 1-h intravenous infusion (± 10 min) at the dose assigned to each level. Study treatment was repeated every 28 days. The dosing regimens of each cohort are summarized in Supplementary Fig. 1.
Secondary objectives included assessment of AEs, treatment-related AEs, objective response rate (ORR), disease control rate (DCR), progression-free survival (PFS), and PK, pharmacodynamic, and pharmacogenomic (PGx) parameters with TAS4464 administration. The National Cancer Institute Common Terminology Criteria for Adverse Events (NCI CTCAE) v4.03 [17] was used to assess the severity of AEs. […] RECIST v1.1 [16] was used to determine clinical response, and all computed tomography images were assessed by the physician at the study site after completion of the imaging procedure. The ORR was defined as the percentage of patients with the best overall response of complete response (CR) or partial response (PR). The DCR was the percentage of patients with a best overall response of CR, PR, stable disease (SD), or non-CR/non-progressive disease (PD). PFS was defined as the time from the date of enrollment until the date of investigator-assessed radiological disease progression or death due to any cause, whichever occurred first.

[1] = weekly dosing Level 1 (10 mg/m^2), n = 1
[2] = weekly dosing Level 2 (20 mg/m^2), n = 1
[3] = weekly dosing Level 3 (40 mg/m^2), n = 3
[4] = weekly dosing Level 4 (56 mg/m^2), n = 5
[5] = weekly dosing with lead-in Level 3 (20 → 40 mg/m^2), n = 3
[6] = weekly dosing with lead-in Level 4 (20 → 56 mg/m^2), n = 3

CCOc1cccc(F)c1C#Cc1cn([C@@H]2O[C@H](CNS(N)(=O)=O)[C@@H](O)[C@H]2O)c2ncnc(N)c12 [TAS4464]
Anemia (treatment-related adverse event) (Total, N = 16): 0 n (%)
Blood bilirubin increased (treatment-related adverse event) (Total, N = 16): 0 n (%)
Decreased appetite (treatment-related adverse event) (Total, N = 16): 0 n (%)
Diarrhea (treatment-related adverse event) (Total, N = 16): 0 n (%)
Fatigue (treatment-related adverse event) (Total, N = 16): 0 n (%)
GGT increased (treatment-related adverse event) (Total, N = 16): 3 (18.8) n (%)
Hypoalbuminemia (treatment-related adverse event) (Total, N = 16): 0 n (%)
Malaise (treatment-related adverse event) (Total, N = 16): 0 n (%)
Nausea (treatment-related adverse event) (Total, N = 16): 0 n (%)
Neuropathy peripheral (treatment-related adverse event) (Total, N = 16): 0 n (%)
Pyrexia (treatment-related adverse event) (Total, N = 16): 0 n (%)
Rash (treatment-related adverse event) (Total, N = 16): 0 n (%)
Vomiting (treatment-related adverse event) (Total, N = 16): 0 n (%)
WBC decreased (treatment-related adverse event) (Total, N = 16): 1 (6.3) n (%)
ALP increased (treatment-related adverse event) [1]: 0 n (%)
ALT increased (treatment-related adverse event) [1]: 0 n (%)
AST increased (treatment-related adverse event) [1]: 0 n (%)
Anemia (treatment-related adverse event) [1]: 0 n (%)
Blood bilirubin increased (treatment-related adverse event) [1]: 0 n (%)
Decreased appetite (treatment-related adverse event) [1]: 0 n (%)
Diarrhea (treatment-related adverse event) [1]: 0 n (%)
Fatigue (treatment-related adverse event) [1]: 0 n (%)
GGT increased (treatment-related adverse event) [1]: 0 n (%)
Hypoalbuminemia (treatment-related adverse event) [1]: 0 n (%)
Malaise (treatment-related adverse event) [1]: 0 n (%)
Nausea (treatment-related adverse event) [1]: 0 n (%)
Neuropathy peripheral (treatment-related adverse event) [1]: 0 n (%)
Pyrexia (treatment-related adverse event) [1]: 0 n (%)
Rash (treatment-related adverse event) [1]: 0 n (%)
Vomiting (treatment-related adverse event) [1]: 0 n (%)
WBC decreased (treatment-related adverse event) [1]: 0 n (%)
ALP increased (treatment-related adverse event) [2]: 0 n (%)
ALT increased (treatment-related adverse event) [2]: 0 n (%)
AST increased (treatment-related adverse event) [2]: 0 n (%)
Anemia (treatment-related adverse event) [2]: 0 n (%)
Blood bilirubin increased (treatment-related adverse event) [2]: 0 n (%)
Decreased appetite (treatment-related adverse event) [2]: 0 n (%)
Diarrhea (treatment-related adverse event) [2]: 0 n (%)
Fatigue (treatment-related adverse event) [2]: 0 n (%)
GGT increased (treatment-related adverse event) [2]: 0 n (%)
Hypoalbuminemia (treatment-related adverse event) [2]: 0 n (%)
Malaise (treatment-related adverse event) [2]: 0 n (%)
Nausea (treatment-related adverse event) [2]: 0 n (%)
Neuropathy peripheral (treatment-related adverse event) [2]: 0 n (%)
Pyrexia (treatment-related adverse event) [2]: 0 n (%)
Rash (treatment-related adverse event) [2]: 0 n (%)
Vomiting (treatment-related adverse event) [2]: 0 n (%)
WBC decreased (treatment-related adverse event) [2]: 0 n (%)
ALP increased (treatment-related adverse event) [3]: 0 n (%)
ALT increased (treatment-related adverse event) [3]: 1 (33.3) n (%)
AST increased (treatment-related adverse event) [3]: 1 (33.3) n (%)
Anemia (treatment-related adverse event) [3]: 0 n (%)
Blood bilirubin increased (treatment-related adverse event) [3]: 0 n (%)
Decreased appetite (treatment-related adverse event) [3]: 0 n (%)
Diarrhea (treatment-related adverse event) [3]: 0 n (%)
Fatigue (treatment-related adverse event) [3]: 0 n (%)
GGT increased (treatment-related adverse event) [3]: 0 n (%)
Hypoalbuminemia (treatment-related adverse event) [3]: 0 n (%)
Malaise (treatment-related adverse event) [3]: 0 n (%)
Nausea (treatment-related adverse event) [3]: 0 n (%)
Neuropathy peripheral (treatment-related adverse event) [3]: 0 n (%)
Pyrexia (treatment-related adverse event) [3]: 0 n (%)
Rash (treatment-related adverse event) [3]: 0 n (%)
Vomiting (treatment-related adverse event) [3]: 0 n (%)
WBC decreased (treatment-related adverse event) [3]: 0 n (%)
ALP increased (treatment-related adverse event) [4]: 1 (20.0) n (%)
ALT increased (treatment-related adverse event) [4]: 3 (60.0) n (%)
AST increased (treatment-related adverse event) [4]: 3 (60.0) n (%)
Anemia (treatment-related adverse event) [4]: 0 n (%)
Blood bilirubin increased (treatment-related adverse event) [4]: 0 n (%)
Decreased appetite (treatment-related adverse event) [4]: 0 n (%)
Diarrhea (treatment-related adverse event) [4]: 0 n (%)
Fatigue (treatment-related adverse event) [4]: 0 n (%)
GGT increased (treatment-related adverse event) [4]: 3 (60.0) n (%)
Hypoalbuminemia (treatment-related adverse event) [4]: 0 n (%)
Malaise (treatment-related adverse event) [4]: 0 n (%)
Nausea (treatment-related adverse event) [4]: 0 n (%)
Neuropathy peripheral (treatment-related adverse event) [4]: 0 n (%)
Pyrexia (treatment-related adverse event) [4]: 0 n (%)
Rash (treatment-related adverse event) [4]: 0 n (%)
Vomiting (treatment-related adverse event) [4]: 0 n (%)
WBC decreased (treatment-related adverse event) [4]: 1 (20.0) n (%)
ALP increased (treatment-related adverse event) [5]: 0 n (%)
ALT increased (treatment-related adverse event) [5]: 0 n (%)
AST increased (treatment-related adverse event) [5]: 0 n (%)
Anemia (treatment-related adverse event) [5]: 0 n (%)
Blood bilirubin increased (treatment-related adverse event) [5]: 0 n (%)
Decreased appetite (treatment-related adverse event) [5]: 0 n (%)
Diarrhea (treatment-related adverse event) [5]: 0 n (%)
Fatigue (treatment-related adverse event) [5]: 0 n (%)
GGT increased (treatment-related adverse event) [5]: 0 n (%)
Hypoalbuminemia (treatment-related adverse event) [5]: 0 n (%)
Malaise (treatment-related adverse event) [5]: 0 n (%)
Nausea (treatment-related adverse event) [5]: 0 n (%)
Neuropathy peripheral (treatment-related adverse event) [5]: 0 n (%)
Pyrexia (treatment-related adverse event) [5]: 0 n (%)
Rash (treatment-related adverse event) [5]: 0 n (%)
Vomiting (treatment-related adverse event) [5]: 0 n (%)
WBC decreased (treatment-related adverse event) [5]: 0 n (%)
ALP increased (treatment-related adverse event) [6]: 0 n (%)
ALT increased (treatment-related adverse event) [6]: 1 (33.3) n (%)
AST increased (treatment-related adverse event) [6]: 1 (33.3) n (%)
Anemia (treatment-related adverse event) [6]: 0 n (%)
Blood bilirubin increased (treatment-related adverse event) [6]: 0 n (%)
Decreased appetite (treatment-related adverse event) [6]: 0 n (%)
Diarrhea (treatment-related adverse event) [6]: 0 n (%)
Fatigue (treatment-related adverse event) [6]: 0 n (%)
GGT increased (treatment-related adverse event) [6]: 0 n (%)
Hypoalbuminemia (treatment-related adverse event) [6]: 0 n (%)
Malaise (treatment-related adverse event) [6]: 0 n (%)
Nausea (treatment-related adverse event) [6]: 0 n (%)
Neuropathy peripheral (treatment-related adverse event) [6]: 0 n (%)
Pyrexia (treatment-related adverse event) [6]: 0 n (%)
Rash (treatment-related adverse event) [6]: 0 n (%)
Vomiting (treatment-related adverse event) [6]: 0 n (%)
WBC decreased (treatment-related adverse event) [6]: 0 n (%)
ALT increased, Grade ≥ 3 treatment-related AE (all treated patients): 31.3%
ALT increased, all-grade treatment-related AE (all treated patients): 68.8%
AST increased, Grade ≥ 3 treatment-related AE (all treated patients): 31.3%
AST increased, all-grade treatment-related AE (all treated patients): 62.5%
alkaline phosphatase (ALP) increased, all-grade treatment-related AE (all treated patients): 43.8%
decreased appetite, all-grade treatment-related AE (all treated patients): 31.3%
nausea, all-grade treatment-related AE (all treated patients): 43.8%
drug-induced liver injury by Hy's law criteria (doses of up to 56 mg/m^2): No patients presented with drug-induced liver injury
treatment-related serious AE (weekly dosing level 4, resolved following TAS4464 dose reduction): ALT increased occurring in one patient
serious AEs (whole study): Four serious AEs were reported in three patients
deaths or fatal AEs (within the study period): No deaths or fatal AEs occurred
